Laboratory results from patent publication US8946205B2, “1,2,4-triazolo[4,3-a]pyridine derivatives and their use as positive allosteric modulators of mGluR2 receptors” (Janssen Pharmaceuticals, Inc., priority 2009, dated 2015).
Read-outs that look alike come from different tables or passages of the source.

Key:
human mGluR2 receptor = biological target: T1, human mGluR2 receptor (Homo sapiens, UniProt Q14416); assay: [35S]GTPγS binding assay (PAM assay, membranes from CHO cells transfected with the human mGluR2 receptor); type: biochemical; conditions: in presence of glutamate at EC20; pEC50 = -log EC50 (mol/L); read-out: GTPγS-hR2 PAM pEC50 (converted)
T1 construct: expressed in transfected cells; host or cells: CHO cells (membranes)
Procedure: The [^35S]GTPγS binding assay is a functional membrane-based assay used to study G-protein coupled receptor (GPCR) function whereby incorporation of a non-hydrolysable form of GTP, [^35S]GTPγS (guanosine 5′-triphosphate, labelled with […] ^35S), is measured. The G-protein α subunit catalyzes the exchange of guanosine 5′-diphosphate (GDP) by guanosine triphosphate (GTP) and on activation of the GPCR by an agonist, [^35S]GTPγS, becomes incorporated and cannot be cleaved to continue the exchange cycle (Harper (1998) Current Protocols in Pharmacology 2.6.1-10, John Wiley & Sons, Inc.). […] Here we describe the use of the [^35S]GTPγS binding assay using membranes from cells transfected with the human mGluR2 receptor and adapted from Schaffhauser et al. ((2003) Molecular Pharmacology 4:798-810) for the detection of the positive allosteric modulation (PAM) properties of the compounds of this invention.
CHO-cells were cultured to pre-confluence and stimulated with 5 mM butyrate for 24 h, prior to washing in PBS, and then collected by scraping in homogenisation buffer (50 mM Tris-HCl buffer, pH 7.4, 4° C.). Cell lysates were homogenized briefly using an ultra-turrax homogenizer. The homogenate was centrifuged at 16,000 RPM (Sorvall RC-5C plus rotor SS-34) for 10 minutes and the supernatant discarded. The pellet was resuspended in 5 mM Tris-HCl, pH 7.4 and centrifuged again (18,000 RPM, 20 min, 4° C.). The final pellet was resuspended in 50 mM Tris-HCl, pH 7.4 and stored at −80° C. in appropriate aliquots before use. Protein concentration was determined by the Bradford method (Bio-Rad, USA) with bovine serum albumin as standard.
Measurement of mGluR2 positive allosteric modulatory activity of test compounds was performed as follows. Test compounds and glutamate were diluted in assay buffer containing 10 mM HEPES acid, 10 mM HEPES salt, pH 7.4, 100 mM NaCl, 3 mM MgCl2 and 10 μM GDP. Human mGlu2 receptor-containing membranes were thawed on ice and diluted in assay buffer supplemented with 14 μg/ml saponin. Membranes were pre-incubated with compound alone or together with a predefined (˜EC20) concentration of glutamate (PAM assay) for 30 min at 30° C. After addition of [^35S]GTPγS (f.c. 0.1 nM) microplates were shaken briefly and further incubated to allow [^35S]GTPγS incorporation on activation (30 minutes, 30° C.). Final assay mixtures contained 7 μg of membrane protein in 10 mM HEPES acid, 10 mM HEPES salt, pH 7.4, 100 mM NaCl, 3 mM MgCl2,10 μM GDP and 10 μg/ml saponin. Total reaction volume was 200 μl. Reactions were terminated by rapid filtration through Unifilter-96 GF/B filter plates (Packard, Meriden, Conn.) using a 96-well Packard filtermate harvester. Filters were washed 6 times with ice-cold 10 mM NaH2PO4/10 mM Na2HPO4, pH 7.4. Filters were then air-dried, and 40 μl of liquid scintillation cocktail (Microscint-O) was added to each well. Membrane-bound radioactivity was counted in a Microplate Scintillation and Luminescence Counter from Packard.
The concentration-response curves of representative compounds of the present invention—obtained in the presence of EC20 of mGluR2 agonist glutamate to determine positive allosteric modulation (PAM)—were generated using the Lexis software interface (developed at J&J). Data were calculated as % of the control glutamate response, defined as the maximal response that is generated upon addition of glutamate alone. Sigmoid concentration-response curves plotting these percentages versus the log concentration of the test compound were analyzed using non-linear regression analysis. The concentration producing half-maximal effect is then calculated as EC50. The pEC50 values below are calculated as the −log EC50 (wherein EC50 is expressed in mol/L). […]

male NMRI mice = assay: Phencyclidine (PCP)-induced hyperlocomotion in mice (video tracking); type: in vivo; conditions: for ED50: Mus musculus, sc, PCP 5 mg/kg s.c., criterion total distance <5500 counts, read-out: ED50 PCP-Inh. (inhibition of PCP-induced hyperlocomotion)
Procedure: On the day of experiments, the mice were brought into the procedural room. They were housed individually and allowed to acclimate for at least a half hour prior to testing. Although the studies were conducted during the light cycle (from 8:00 to 16:00 h), the procedure room was only sparsely lit (3 to 30 LUX) to provide better contrast for the video tracking. Local lighting was used for the injection procedures. During each trial, an individual mouse was placed in an open field arena (grey PVC cylinder with a height of 40 cm and a diameter of 22.5 cm). Each arena was placed on an infrared LED (8×8 LEDs)-lit box (white PVC squared box; 40×40 cm^2; height 12.5 cm). Each mouse was placed in the center of the arena and allowed to explore freely for 30 min. After each trial, the arena was cleaned with a wet and subsequently with a dry cleaning cloth. An infrared sensitive tube camera and a white light source (in arena: 4-7 LUX) were mounted to the ceiling above the observation chamber to record and input activity to a computer. Animal behavior was recorded and analyzed using the Noldus Ethovision XT Video Tracking System (Version 3.1; Noldus, Wageningen, The Netherlands). The total distance traveled (cm) was calculated. Data were then exported to data management systems for further analysis and reporting. Phencyclidine (PCP)-Induced Hyperlocomotion in Mice Test compound or solvent was administered at a pre-defined time before measurement (standard: 30 min) to male NMRI mice that were challenged with phencyclidine (PCP; 5 mg/kg, s.c.) 30 min before measurement. Activity was measured for a period of 30 min. Criterion for drug-induced inhibition of hyperlocomotion: total distance<5500 counts (3.9% false positives in controls; n=154). Conditioned Avoidance Response (CAR) Test Apparatus The apparatus consisted of an inner box surrounded by an outer box. The inner box was composed of four walls of transparent, synthetic material (length×width×height: 30×30×30 cm), an open top, and a grid floor made of 15 pairs of iron bars (2 mm diameter; 6 mm inter-bar distance). Odd and even bars were connected with a source of alternative current (1.0 mA; Coulbourn Instruments Solid State Shocker/Distributor), which could be interrupted by a switch. The outer box was composed of the same material (length×width×height: 40×40×36 cm), also with an open top, with a distance of 5 cm between the inner and outer box on all sides. To decrease the amount of environmental stimuli, three walls of the outer box were made non-transparent. The front wall was left transparent to allow the necessary inspection of the animal during the test. The upper edge of the outer and inner box served as a target for the rats on which to jump with fore- and hind-paws, respectively. Avoidance Conditioning and Selection of Animals From their arrival in the laboratory on the experimental day, male Wiga Wistar rats (230±30 g) were housed in individual cages provided with bedding material. […] Experimental Sessions The rats were tested 3 times, i.e. at 60, 90 and 120 min after the injection of test compound or solvent. Latency to avoidance was recorded. The median avoidance response obtained over the three experimental sessions for each rat were used for further calculations. […] Sleep Wake Electroencephalography (SW-EEG) in Rats SW-EEG analyses are a highly sensitive read-out of a compound's central functional activity that may provide additional insight in the potential therapeutic application (i.e. via drug classification fingerprinting). […] Internal efforts have confirmed that this effect is mGlu2 receptor-mediated, i.e. is absent in mGlu2 KO mice. Sleep abnormalities are often associated with CNS disorders; as such, the potential use of mGlu2 modulators could also have benefit in the treatment of CNS disorders in which (REM) sleep aberrations are manifested. […]

male Wiga Wistar rats = assay: Conditioned avoidance response (CAR) test in rats; type: in vivo; conditions: for ED50: Rattus norvegicus, criterion median avoidance latency >8 s
Procedure: On the day of experiments, the mice were brought into the procedural room. They were housed individually and allowed to acclimate for at least a half hour prior to testing. Although the studies were conducted during the light cycle (from 8:00 to 16:00 h), the procedure room was only sparsely lit (3 to 30 LUX) to provide better contrast for the video tracking. Local lighting was used for the injection procedures. During each trial, an individual mouse was placed in an open field arena (grey PVC cylinder with a height of 40 cm and a diameter of 22.5 cm). Each arena was placed on an infrared LED (8×8 LEDs)-lit box (white PVC squared box; 40×40 cm^2; height 12.5 cm). Each mouse was placed in the center of the arena and allowed to explore freely for 30 min. After each trial, the arena was cleaned with a wet and subsequently with a dry cleaning cloth. An infrared sensitive tube camera and a white light source (in arena: 4-7 LUX) were mounted to the ceiling above the observation chamber to record and input activity to a computer. Animal behavior was recorded and analyzed using the Noldus Ethovision XT Video Tracking System (Version 3.1; Noldus, Wageningen, The Netherlands). The total distance traveled (cm) was calculated. Data were then exported to data management systems for further analysis and reporting. Phencyclidine (PCP)-Induced Hyperlocomotion in Mice Test compound or solvent was administered at a pre-defined time before measurement (standard: 30 min) to male NMRI mice that were challenged with phencyclidine (PCP; 5 mg/kg, s.c.) 30 min before measurement. Activity was measured for a period of 30 min. Criterion for drug-induced inhibition of hyperlocomotion: total distance<5500 counts (3.9% false positives in controls; n=154). Conditioned Avoidance Response (CAR) Test Apparatus The apparatus consisted of an inner box surrounded by an outer box. The inner box was composed of four walls of transparent, synthetic material (length×width×height: 30×30×30 cm), an open top, and a grid floor made of 15 pairs of iron bars (2 mm diameter; 6 mm inter-bar distance). Odd and even bars were connected with a source of alternative current (1.0 mA; Coulbourn Instruments Solid State Shocker/Distributor), which could be interrupted by a switch. The outer box was composed of the same material (length×width×height: 40×40×36 cm), also with an open top, with a distance of 5 cm between the inner and outer box on all sides. To decrease the amount of environmental stimuli, three walls of the outer box were made non-transparent. The front wall was left transparent to allow the necessary inspection of the animal during the test. The upper edge of the outer and inner box served as a target for the rats on which to jump with fore- and hind-paws, respectively. Avoidance Conditioning and Selection of Animals From their arrival in the laboratory on the experimental day, male Wiga Wistar rats (230±30 g) were housed in individual cages provided with bedding material. […] Experimental Sessions The rats were tested 3 times, i.e. at 60, 90 and 120 min after the injection of test compound or solvent. Latency to avoidance was recorded. […] Sleep Wake Electroencephalography (SW-EEG) in Rats SW-EEG analyses are a highly sensitive read-out of a compound's central functional activity that may provide additional insight in the potential therapeutic application (i.e. via drug classification fingerprinting). […]

rats = assay: Sleep wake electroencephalography (SW-EEG) in rats; type: in vivo
Procedure: On the day of experiments, the mice were brought into the procedural room. They were housed individually and allowed to acclimate for at least a half hour prior to testing. Although the studies were conducted during the light cycle (from 8:00 to 16:00 h), the procedure room was only sparsely lit (3 to 30 LUX) to provide better contrast for the video tracking. Local lighting was used for the injection procedures. During each trial, an individual mouse was placed in an open field arena (grey PVC cylinder with a height of 40 cm and a diameter of 22.5 cm). Each arena was placed on an infrared LED (8×8 LEDs)-lit box (white PVC squared box; 40×40 cm^2; height 12.5 cm). Each mouse was placed in the center of the arena and allowed to explore freely for 30 min. After each trial, the arena was cleaned with a wet and subsequently with a dry cleaning cloth. An infrared sensitive tube camera and a white light source (in arena: 4-7 LUX) were mounted to the ceiling above the observation chamber to record and input activity to a computer. Animal behavior was recorded and analyzed using the Noldus Ethovision XT Video Tracking System (Version 3.1; Noldus, Wageningen, The Netherlands). The total distance traveled (cm) was calculated. Data were then exported to data management systems for further analysis and reporting. Phencyclidine (PCP)-Induced Hyperlocomotion in Mice Test compound or solvent was administered at a pre-defined time before measurement (standard: 30 min) to male NMRI mice that were challenged with phencyclidine (PCP; 5 mg/kg, s.c.) 30 min before measurement. Activity was measured for a period of 30 min. Criterion for drug-induced inhibition of hyperlocomotion: total distance<5500 counts (3.9% false positives in controls; n=154). […] Latency to avoidance was recorded. […] Sleep Wake Electroencephalography (SW-EEG) in Rats SW-EEG analyses are a highly sensitive read-out of a compound's central functional activity that may provide additional insight in the potential therapeutic application (i.e. via drug classification fingerprinting). […]

[1] = po, compound administered orally (*), read-out: ED50 CAR-Inh. (inhibition of conditioned avoidance response), administered orally

T1 sequence (Q14416 19-872): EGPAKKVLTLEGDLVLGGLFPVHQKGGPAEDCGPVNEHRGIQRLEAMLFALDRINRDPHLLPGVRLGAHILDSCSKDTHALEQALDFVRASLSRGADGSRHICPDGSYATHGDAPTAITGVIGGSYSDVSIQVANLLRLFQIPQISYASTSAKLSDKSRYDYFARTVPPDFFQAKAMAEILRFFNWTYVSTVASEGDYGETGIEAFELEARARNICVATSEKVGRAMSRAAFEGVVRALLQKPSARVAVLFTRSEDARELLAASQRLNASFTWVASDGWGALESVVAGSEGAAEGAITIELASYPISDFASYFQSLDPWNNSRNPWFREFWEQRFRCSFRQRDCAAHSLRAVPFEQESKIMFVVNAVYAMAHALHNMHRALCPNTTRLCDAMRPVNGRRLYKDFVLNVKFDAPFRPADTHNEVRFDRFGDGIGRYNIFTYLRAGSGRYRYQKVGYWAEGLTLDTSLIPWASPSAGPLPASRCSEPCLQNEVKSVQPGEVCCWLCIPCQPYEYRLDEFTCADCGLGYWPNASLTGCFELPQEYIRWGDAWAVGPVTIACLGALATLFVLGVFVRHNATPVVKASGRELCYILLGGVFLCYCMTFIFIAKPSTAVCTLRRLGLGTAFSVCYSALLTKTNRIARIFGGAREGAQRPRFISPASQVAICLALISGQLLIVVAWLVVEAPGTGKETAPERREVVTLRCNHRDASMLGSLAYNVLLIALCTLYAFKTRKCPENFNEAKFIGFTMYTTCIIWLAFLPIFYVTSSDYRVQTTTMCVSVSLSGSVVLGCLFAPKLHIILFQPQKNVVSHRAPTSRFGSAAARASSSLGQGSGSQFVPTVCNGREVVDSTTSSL

EC50 (human mGluR2 receptor)	melting point	Structure (SMILES)	inhibition of PCP-induced hyperlocomotion (in words) (male NMRI mice)	ED50 (male NMRI mice)	inhibition of the conditioned avoidance response (in words) (male Wiga Wistar rats)	ED50 (male Wiga Wistar rats; not marked as oral, read-out: ED50 CAR-Inh. (inhibition of conditioned avoidance response))	ED50 (male Wiga Wistar rats; [1])	effect on REM sleep (rats; oral administration)	lowest active dose for decrease of REM sleep (rats; p.o.)	effect on REM sleep (rats; 3 mg/kg, p.o.)
11.2 nM	206.9 °C	O[C@H]1CC[C@H](n2ccc3cc(-c4ccn5c(CC6CC6)nnc5c4C(F)(F)F)ccc32)CC1 [Compound 4]	inhibited	13.2 mg/kg	inhibited	20 mg/kg	≥ 40 mg/kg	–	–	–
79.4 nM	–	Clc1c(-c2ccc3c(ccn3-c3cccnc3)c2)ccn2c(CC3CC3)nnc12 [Compound 17, 8-Chloro-3-cyclopropylmethyl-7-[1-(pyridin-3-yl)-1H-indol-5-yl]-[1,2,4]triazolo[4,3-a]pyridine]	inhibited	10.7 mg/kg	inhibited	–	20 mg/kg	dose-dependently decrease REM sleep	10 mg/kg	–
22.9 nM	243.8 °C	Cc1ccc(-n2ccc3cc(-c4ccn5c(CC6CC6)nnc5c4Cl)cc(F)c32)cn1 [Compound 31]	inhibited	7.1 mg/kg	–	–	–	–	–	–
–	–	N[C@@]1(C(=O)O)CS(=O)(=O)[C@H]2[C@H](C(=O)O)[C@H]21 [LY404039, reference compound]	–	–	–	–	–	–	–	affect REM sleep
